Laboratory results reported in ChEMBL document CHEMBL4219157, “Alkylated/aminated nitroimidazoles and nitroimidazole-7-chloroquinoline conjugates: Synthesis and anti-mycobacterial evaluation” (Bioorg Med Chem Lett, 2018).
In brackets after ≈: the same amount, converted by molar mass.

Experiments:
J774 = experiment: Cytotoxicity against mouse J774 cells assessed as decrease in cell viability after 24 hrs by resazurin based assay; settings: J774, 24 h
[1] = Selectivity index, ratio of IC50 for mouse J774 cells to MIC50 for Mycobacterium tuberculosis mc2 6230; assay type: toxicity; settings: read-out: Selectivity Index
[2] = test system: Mycobacterium tuberculosis; experiment: Antitubercular activity against Mycobacterium tuberculosis mc2 6230 after 7 days by broth microdilution assay; assay type: functional; settings: mc2 6230, 168 h

Row | SMILES | IC50 (J774) | selectivity ratio [1] | MIC50 [2]
1 | Cc1ncc([N+](=O)[O-])n1CCCN1CCCC1 | > 100 µg/mL | > 5.2 | 19.3 µg/mL (≈ 81 µM)
2 | Cc1ncc([N+](=O)[O-])n1CCCN1CCOCC1 | > 100 µg/mL | > 5.5 | 18 µg/mL (≈ 70.8 µM)
3 | Cc1ncc([N+](=O)[O-])n1CCCCCCN1CCN(c2ccnc3cc(Cl)ccc23)CC1 | < 0.8 µg/mL | < 0.66 | 1.2 µg/mL (≈ 2.63 µM)
4 | Cc1ncc([N+](=O)[O-])n1CCCCCBr | 83 µg/mL (≈ 301 µM) | 6.2 | 13.3 µg/mL (≈ 48.2 µM)
5 | NNC(=O)c1ccncc1 [ISONIAZID] | – | – | 0.019 µg/mL (≈ 0.139 µM)
6 | Cc1ncc([N+](=O)[O-])n1CCCCCN1CCN(c2ccnc3cc(Cl)ccc23)CC1 | 28.9 µg/mL (≈ 65.2 µM) | 5.6 | 5.2 µg/mL (≈ 11.7 µM)
7 | Cc1ncc([N+](=O)[O-])n1CCCCCN1CCOCC1 | > 100 µg/mL | – | > 100 µg/mL
8 | Cc1ncc([N+](=O)[O-])n1CCCBr | 54.8 µg/mL (≈ 221 µM) | 10.3 | 5.3 µg/mL (≈ 21.4 µM)
9 | Cc1ncc([N+](=O)[O-])n1CCCCCN1CCCCC1 | > 100 µg/mL | > 2 | 49 µg/mL (≈ 175 µM)
10 | Cc1ncc([N+](=O)[O-])n1CCCCN1CCN(c2ccnc3cc(Cl)ccc23)CC1 | > 100 µg/mL | > 45.3 | 2.2 µg/mL (≈ 5.13 µM)
11 | Cc1ncc([N+](=O)[O-])n1CCCN1CCCCC1 | > 100 µg/mL | – | > 100 µg/mL
12 | Cc1ncc([N+](=O)[O-])n1CCCCN1CCOCC1 | > 100 µg/mL | > 4.3 | 23.1 µg/mL (≈ 86.1 µM)
13 | Cc1ncc([N+](=O)[O-])n1CCCCCCBr | 69.9 µg/mL (≈ 241 µM) | 14.1 | 4.9 µg/mL (≈ 16.9 µM)
14 | Cc1ncc([N+](=O)[O-])n1CCCCN1CCCCC1 | > 100 µg/mL | > 5.2 | 19.3 µg/mL (≈ 72.5 µM)
15 | Cc1ncc([N+](=O)[O-])n1CCCCCN1CCCC1 | > 100 µg/mL | > 8.1 | 12.3 µg/mL (≈ 46.2 µM)
16 | Clc1ccc2c(N3CCNCC3)ccnc2c1 | – | – | 92 µg/mL (≈ 371 µM)
17 | Cc1ncc([N+](=O)[O-])n1CCCCN1CCCC1 | > 100 µg/mL | > 8 | 12.6 µg/mL (≈ 49.9 µM)
18 | Cc1ncc([N+](=O)[O-])n1CCCCBr | 61 µg/mL (≈ 233 µM) | 3.4 | 17.7 µg/mL (≈ 67.5 µM)
19 | Cc1ncc([N+](=O)[O-])n1CCCN1CCN(c2ccnc3cc(Cl)ccc23)CC1 | > 100 µg/mL | > 26.3 | 3.8 µg/mL (≈ 9.16 µM)
